Reference: PubChem BioAssay (NCI)
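A five-concentration, 48-hour dose response in 96-well plates underlies each endpoint, interpolated linearly between surrounding concentrations. Here, GI50 denotes the concentration required for 50% inhibition of growth. At the TGI there is no net growth.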

Columns and labels:
Experiment in all cases: inhibition of tumour cell growth, NCI panel, 48 h
[1] = test system: A549 NSCLC
[2] = test system: HCT-116 colon
[3] = test system: HCT-15 colon
[4] = test system: IGROV1 ovarian
[5] = test system: MALME-3M melanoma
[6] = test system: NCI-H23 lung
[7] = test system: SK-MEL-28 melanoma
[8] = test system: SNB-19 CNS
[9] = test system: SK-OV-3 ovarian

Row | SMILES | TGI [1] [µM] | TGI [2] [µM] | TGI [3] [µM] | TGI [4] [µM] | TGI [5] [µM] | TGI [6] [µM] | TGI [7] [µM] | TGI [8] [µM] | TGI [9] [µM] | GI50 [1] [µM] | GI50 [2] [µM] | GI50 [3] [µM] | GI50 [4] [µM] | GI50 [5] [µM] | GI50 [6] [nM] | GI50 [7] [nM] | GI50 [9] [µM] | GI50 [8] [µM]
1 | CCCNC1=C(C(=O)OCC)C(=O)CO1 | > 100 | > 100 | > 100 | > 100 | > 100 | > 100 | > 100 | > 100 | – | – | – | – | – | – | – | – | – | –
2 | N#C/C(=C\c1ccc(O)c(O)c1)C(N)=S | > 100 | > 100 | > 100 | > 100 | > 100 | > 100 | > 100 | > 100 | > 100 | – | – | – | – | – | – | – | – | –
3 | CCCCCCCCCCCC(=O)OCC1OC(n2cc(F)c(=O)[nH]c2=O)C(NC(=O)OCc2ccccc2)C(OC(=O)CCCCCCCCCCC)C1O (stereo not drawn) | > 100 | > 100 | > 100 | > 100 | > 100 | > 100 | > 100 | > 100 | > 100 | – | – | – | – | – | – | – | – | –
4 | NC1C[C@H](n2cc(/C=C/Br)c(=O)[nH]c2=O)C[C@@H]1CO (stereo partly drawn) | – | – | > 100 | – | – | > 100 | > 100 | > 100 | > 100 | – | – | – | – | – | – | – | – | –
5 | Nc1ccn(CCNCCn2cnc3nc(N)[nH]c(=O)c32)c(=O)n1 | > 100 | > 100 | > 100 | > 100 | > 100 | > 100 | > 100 | > 100 | – | – | – | – | – | – | – | – | – | –
6 | CCN(CC)c1ccc(C(=O)c2ccccc2C(=O)O)c(O)c1 | > 100 | > 100 | > 100 | > 100 | > 100 | > 100 | > 100 | > 100 | > 100 | – | – | – | – | – | – | – | – | –
7 | COc1cc(OC(C)=O)cc2c(OC(C)=O)ccc(OC(C)=O)c12 | > 100 | > 100 | > 100 | > 100 | – | > 100 | > 100 | > 100 | – | – | – | – | – | – | – | – | – | –
8 | COC(C(=O)[O][Ge]([CH3])([CH3])[CH3])c1ccccc1 (stereo not drawn) | > 100 | > 100 | > 100 | > 100 | > 100 | > 100 | > 100 | > 100 | > 100 | > 100 | > 100 | > 100 | > 100 | > 100 | > 100000 | > 100000 | > 100 | > 100
9 | Cc1[nH]ccc2c1[nH]c1cc(=O)ccc12 | > 100 | > 100 | > 100 | > 100 | > 100 | > 100 | > 100 | > 100 | > 100 | – | – | – | – | – | – | – | – | –
10 | CCOc1ccc(NC(=O)C(=O)CC(=O)C2=C(C)Nc3ccccc3S2)cc1 | > 50 | > 50 | > 50 | > 50 | > 50 | > 50 | > 50 | > 50 | > 50 | – | – | – | – | – | – | – | – | –
11 | CC1SC2=NC3=C(c4ccccc4C3=O)C(c3ccc(F)cc3)N2C1=O (stereo not drawn) | > 100 | > 100 | > 100 | > 100 | > 100 | > 100 | > 100 | > 100 | > 100 | – | – | – | – | – | – | – | – | –
12 | CCc1ccccc1NC(=O)C(=O)CC(=O)c1sc(Nc2ccccc2)nc1C | > 100 | > 100 | > 100 | > 100 | > 100 | > 100 | > 100 | > 100 | > 100 | – | – | – | – | – | – | – | – | –
13 | CCCCC(CC)CN=C(N)NC(N)=NCCCCCCN=C(N)NC(N)=NCC(CC)CCCC (stereo not drawn) | – | – | 16.5 | – | – | – | 5.03 | – | 6.86 | – | – | 2.98 | – | – | – | 2260 | 2.64 | –
14 | C=CCC[CH2][Sn]([c]1ccccc1)([c]1ccccc1)[c]1ccccc1 | 3.54 | 2.15 | 3.07 | 3.35 | 3.05 | 3.01 | 3.47 | 3.31 | 3.57 | 1.71 | 0.977 | 1.52 | 1.77 | 1.56 | 1640 | 1840 | 1.89 | 1.73
15 | NNC(=O)/C(=C/c1ccc(Cl)cc1Cl)NC(=O)c1ccccc1 | > 100 | > 100 | > 100 | > 100 | > 100 | > 100 | > 100 | > 100 | > 100 | – | – | – | – | – | – | – | – | –
16 | Cc1cc(N(CCC#N)CCC#N)ccc1N=Nc1cccc(C(=O)O)c1 | > 100 | – | > 100 | > 100 | > 100 | > 100 | > 100 | – | > 100 | – | – | – | – | – | – | – | – | –
17 | CC1=C(C)C(=O)c2c(cc3ccccn23)C1=O | 43.1 | – | 29.9 | 54.5 | 17 | 23.3 | 34 | 28.6 | 63.6 | – | – | – | – | – | – | – | – | –

Row | SMILES | TGI [1] [µM] | TGI [2] [µM] | TGI [3] [µM] | TGI [4] [µM] | TGI [5] [µM] | TGI [6] [µM] | TGI [7] [µM] | TGI [8] [µM] | TGI [9] [µM] | GI50 [1] [µM] | GI50 [2] [µM] | GI50 [3] [µM] | GI50 [4] [µM] | GI50 [5] [µM] | GI50 [6] [nM] | GI50 [7] [nM] | GI50 [9] [µM] | GI50 [8] [µM]
18 | O=C(CN1CCOCC1)Nc1nc(-c2ccc(Cl)cc2)cs1 | > 100 | – | > 100 | > 100 | 65.2 | 40.1 | 74.8 | > 100 | > 100 | – | – | – | – | – | – | – | – | –
19 | C1C[OH+]CC[OH+]CCNCC[OH+]CC[OH+]CCN1.N.[Cl-].[Pt+4] | > 100 | 65.8 | 71.6 | 34.7 | 18.3 | 12 | 35.7 | 62.6 | 60.9 | 15.4 | 10.1 | 20.2 | 4.55 | 3.14 | 1800 | 11100 | 15.1 | 7.22
20 | Cc1ccc(NC(=O)C(=O)C(C#N)c2ccccc2C)cc1C (stereo not drawn) | > 100 | > 63 | > 62 | > 100 | > 100 | > 100 | > 100 | > 100 | > 100 | – | – | – | – | – | – | – | – | –
21 | CSc1ccc(C2OC(=O)c3ccccc32)c2ccccc12 (stereo not drawn) | > 100 | > 100 | > 100 | > 100 | > 100 | – | > 100 | > 100 | > 100 | – | – | – | – | – | – | – | – | –
22 | CC1=Nc2ccccc2S/C1=C(/C)NNC(=O)C(N)=O | > 100 | > 100 | > 100 | > 100 | > 100 | > 100 | > 100 | > 100 | > 100 | – | – | – | – | – | – | – | – | –
23 | CN(C)C(=O)OC(Cn1cncn1)c1ccc(Cl)cc1Cl (stereo not drawn) | > 100 | > 100 | > 100 | > 100 | > 100 | > 100 | > 100 | > 100 | > 100 | – | – | – | – | – | – | – | – | –
24 | C/C(=N\NS(=O)(=O)c1ccccc1)c1ccc(Cl)c(Cl)c1 | > 100 | > 100 | > 100 | > 100 | > 100 | > 100 | > 100 | – | > 100 | – | – | – | – | – | – | – | – | –
25 | Cc1ccc(N=Cc2ccc3c(c2)OCO3)cc1C | > 100 | > 100 | > 100 | > 100 | > 100 | > 100 | > 100 | > 100 | > 100 | – | – | – | – | – | – | – | – | –
26 | CC1=C(Oc2ccccc2)C(CCC(=O)O)c2c(O)cc(Cl)c(O)c21 (stereo not drawn) | > 100 | > 100 | > 100 | > 100 | – | > 100 | > 100 | > 100 | – | – | – | – | – | – | – | – | – | –
27 | O=C(N/C(=C\c1ccc2c(c1)OCO2)c1nc2ccccc2[nH]1)c1ccccc1 | > 100 | > 89 | > 100 | 77.3 | > 89.7 | 53.4 | 52.1 | > 100 | > 100 | – | – | – | – | – | – | – | – | –
28 | COc1ccc(OC)c(NC(=O)C2=C(C)NC(C)=C(C(=O)Nc3cc(OC)ccc3OC)C2c2ccccc2)c1 | > 100 | > 100 | > 100 | > 100 | > 100 | > 100 | > 100 | > 100 | > 100 | – | – | – | – | – | – | – | – | –
29 | CC1(C)C(=NNC(=O)C[N+](C)(C)C)C(C)(C)C1=NNC(=O)C[N+](C)(C)C | > 100 | > 100 | > 100 | > 100 | > 100 | > 100 | > 100 | > 100 | > 100 | – | – | – | – | – | – | – | – | –
30 | COc1ccc(OC)c(/C=C2\SC(=S)NC2=O)c1 | 89.9 | > 100 | 93 | > 100 | 92.8 | 68.6 | > 100 | > 100 | > 100 | 26 | 29.9 | 26.2 | 31.2 | 34.6 | 23100 | 42400 | 33.1 | 79.8
31 | O=[N+]([O-])C1C2C=CC(C2)[C@H]1c1ccco1 (stereo partly drawn) | > 100 | > 100 | > 100 | > 100 | > 100 | 2.36 | – | > 100 | > 100 | – | – | – | – | – | – | – | – | –
32 | COc1ccc(-c2n/c(=C\c3c(O)[nH]c4ccc(OC)cc34)cc3c2=Nc2ccccc2-3)cc1 | 66.2 | 3.33 | – | > 100 | – | 3.97 | 3.32 | > 100 | 46.6 | 3.43 | 1.85 | – | 12 | – | 1890 | 1900 | 22.5 | 3.88
33 | CC1C=C(OC(=O)c2ccccc2)C(=O)C(n2cc(F)c(=O)[nH]c2=O)O1 (stereo not drawn) | > 100 | > 100 | > 100 | > 100 | > 100 | > 100 | > 100 | > 100 | > 100 | – | – | – | – | – | – | – | – | –
